The record followed here is ChEMBL document CHEMBL1149747, “Diterpene metabolites from two chemotypes of the marine sponge Myrmekioderma styx” (J Nat Prod, 1992).

≈ marks a conversion by molar mass, not a printed value.

In one assay the test system is A549. Kind of assay: Cytotoxicity against human A549 cells. Format: functional, cell-based.
A further assay relates to P388. The assay can be described thus: Cytotoxicity against mouse P388 cells. Format: functional, cell-based.

The IC50 is the concentration at which inhibition is half-maximal.

With `CC(=O)O[C@@H]1C[C@]2(C)C[C@@H]3O[C@]3(C)CCC2[C@@H]2C(C(C)C)=CC[C@]12C` (stereo partly specified), the IC50 amounted to 7 µg/mL (≈ 20.2 µM) in the assay on A549 and 5.6 µg/mL (≈ 16.2 µM) with P388.
For `C=CC(C)(O)/C=C/C=C(\C)CC/C=C(\C)CC(=O)C=C(C)C` (stereo unspecified) [STYXENOL A], the figures for the IC50 with A549 and with P388 were 6.1 µg/mL (≈ 20.2 µM) and 5 µg/mL (≈ 16.5 µM), respectively.
Turning to `CC1=CC[C@@]2(C)CC[C@@]3(C)[C@H](O)C=C(C(C)C)[C@H]3C2CC1` (stereo partly specified), the IC50 with A549 was 4 µg/mL (≈ 13.9 µM); in the assay on P388, 11.2 µg/mL (≈ 38.8 µM).
